Data taken from US20040167111A1, “Pharmaceutical preparations for treating side effects during and/or after GnRHa therapy” (priority 1998, published 2004).

What was measured:
prostate of male rats = assay: Model study in male rats: moisture content of the prostate after 21 days; format: in vivo
Method: (§1) A model study was performed in which both 17β-estradiol and 14α,15α-methylene-1,3,5(10),8-tetraene-3,17α-diol were administered to male rats. The purpose of this study was to compare the extent of the undersirable side effects produced in males (in this case male rats as a model) that are produced by administration of an estrogen, namely 17β-estradiol, and by 14α, 15α-methylene-1,3,5(10),8-tetraene-3,17α-diol, an effective ingredient of the present invention.
(§2) Respective amounts of 17β-estradiol and 14α,15α-methylene-1,3,5(10),8-tetraene-3,17α-diol equivalent to 0.04 mg/kg body weight were administered over a 21 day period to the male rats in corresponding groups of male rats. These amounts were administered daily over the 21 day period to individual male rats subcutaneously. Eight male rats were in each group.
(§3) The moisture content in the prostate and seminal vesicles of each tested male rat was measured at the end of the 21 day test period. The experimental error estimate is shown with the “T” at the top of each bar in the respective bar graphs.

[1] = test system: seminal vesicles of male rats; assay: Model study in male rats: moisture content of the seminal vesicles after 21 days; format: in vivo
Method: as §1, §2, §3

[2] = test system: female test subjects treated with Decapeptyl-Depot for endometriosis; assay: Clinical study in women with endometriosis under GnRHa therapy (Decapeptyl-Depot); format: in vivo, human
Method: Here clinical studies in women with endometriosis are reported.
(§4) The effectiveness of injected Decapeptyl-Depot (Ferring Arzneimittel GmbH, Kiel, Germany) in a dose of 3.2 mg of Triptorelin intramuscularly at intervals of four weeks and 1 to 2 mg of 14α,15α-methylene-1,3,5(10),8-tetraene-3,17α-diol daily, given in the form of a vaginal suppository of 1 mg of 14α,15α-methylene-1,3,5(10),8-tetraene-3,17α-diol each, was tested in fourteen female test subjects aged 22 to 38, who were being treated with Decapeptyl-Depot for endometriosis for at least six months.
The treatment with 14α,15α-methylene-1,3,5(10),8-tetraene-3,17α-diol was begun four weeks after the beginning of GnRHa therapy, that is, at the time of the second Decapeptyl injection.
Hot flashes were recorded by the subjects daily on a control form laid out for a 24-hour day, beginning with the first day of Decapeptyl therapy.
The mean number of hot flashes per 24 hours in weeks 3 and 4 of the GnRHa treatment (that is, before the beginning of the 14α,15α-methylene-1,3,5(10),8-tetraene-3,17α-diol therapy) was assumed to be 100%, for the sake of better comparability. The number of hot flashes during additional therapy with 14α,15α-methylene-1,3,5(10),8-tetraene-3,17α-diol was indicated as a percentage of the starting value. For five subjects, a measurement of skin temperature over 24 hours was done, for the sake of objectivity.
At intervals of four weeks, immediately prior to the injection of Decapeptyl-Depot, blood was drawn to determine LI-I, FSH, prolactin, testosterone, DHEAS, SHBG, free testosterone, estradiol, and progesterone. Blood specimens were also taken for determining a simple blood count, SGOT, SGPT, creatinine, Na, K, Ca, albumin, glucose and CA 125.
For long-term treatment, bone density was monitored at intervals of 6 to 12 months. In seven subjects, trials of withdrawal from 14α,15α-methylene-1,3,5(10),8-tetraene-3,17α-diol over 4 to 8 weeks each were done.

[3] = test system: test subjects with fibroid tumors of the uterus; assay: Clinical study in women with fibroid tumors of the uterus under GnRHa therapy; format: in vivo, human
Method: as §4
Test subjects aged 22 to 46 with fibroid tumors of the uterus were given the same doses.

[4] = test system: males with prostate-Ca under GnRHa therapy; assay: Observation in males with prostate-Ca under GnRHa therapy; format: in vivo, human
[5] = test system: female test subjects treated with Decapeptyl-Depot for endometriosis; assay: Clinical study in women with endometriosis under GnRHa therapy (Decapeptyl-Depot); format: in vivo, human; remark: listed apart in the source

## C[C@]12CCC3=C(CCc4cc(O)ccc43)[C@@]13C[C@H]3C[C@H]2O [14α,15α-methylene-1,3,5(10),8-tetraene-3,17α-diol]
Prostate of male rats; male rats, 0.04 mg/kg body weight subcutaneously daily over 21 days, FIG. 1
  proliferation effect in the prostates (increase in the moisture content): scarcely any proliferation effect
Prostate of male rats; male rats, prostate and seminal vesicles, 0.04 mg/kg s.c. daily 21 days
  undesirable estrogen side effects: no undesirable estrogen side effects
[1]; male rats, 0.04 mg/kg body weight subcutaneously daily over 21 days, FIG. 2
  proliferation effect on the seminal vesicles (increase in the moisture content): no profileration effect
[2]; 1 to 2 mg daily as vaginal suppository in addition to Decapeptyl-Depot
  bleeding: No bleeding occurred
[2]; 1 to 2 mg daily vaginal suppository in addition to Decapeptyl-Depot
  values for LH, FSH, prolactin, testosterone, DHEAS, SHBG, estradiol, and progesterone: remained low and unchanged
[2]; add-on to Decapeptyl-Depot
  Ca 125 values: did not rise
  body weight: no change
  intracyclic bleeding: No intracyclic bleeding occurred
  liver values, blood count or electrolytes: No changes
[2]; during the treatment
  endometriosis-specific complaints: did not recur
[2]; over one year, four subjects monitored
  bone density: did not change significantly
[2]; subjects with borderline RR (n=4, RR around 140/80)
  blood pressure: around 110/70
[2]; withdrawal over 4 to 8 weeks, seven subjects
  hot flashes in withdrawal trial: increase in hot flashes, within three weeks back to the starting values
[3]; Decapeptyl-Depot plus add-on
  course of the decrease in uterine volume versus subjects not receiving the compound: identical
[3]; supplementary treatment
  influence on the effect of the GnRHa therapy on the lower organs: did not influence
[3]; within three months, Decapeptyl-Depot plus add-on
  uterus size: 40±10 % of the starting value
[4]
  hot flashes tripped by GnRHa therapy: same result
[5]; all subjects
  complaints of undesirable estrogen-related side effects: complaint-free
[5]; treated females, endometriosis or fibroid tumors of the uterus
  hot flashes tripped by GnRHa therapy: effectively eliminated

## C[C@]12CC[C@@H]3c4ccc(O)cc4CC[C@H]3[C@@H]1CC[C@@H]2O [estradiol, 17β-estradiol, reference compound]
Prostate of male rats; rat, in vivo, sc, 0.04 mg/kg
  proliferation effect in the prostates (increase in the moisture content): comparatively large proliferation effect
  undesirable estrogen side effects: estrogen side effects of course result
[1]; rat, in vivo, sc, 0.04 mg/kg
  proliferation effect on the seminal vesicles (increase in the moisture content): comparatively large proliferation effect
